Laboratory results taken from patent publication US20190374509A1, “Methods of Using Metamizole for Treatment of Pyrexia in Equines” (Kindred Biosciences, Inc., priority 2018, published 2019).
Where “and” joins values, the source holds several entries; their conditions need not be identical. Equal entries are not always repeated. Where two headings read alike, the source gives them in different places.

What was measured:
horses [1] = type: in vivo; conditions: 8 horses per group
Experimental: (§1) A study was conducted to evaluate the margin of safety of metamizole when administered intravenously to horses for 9 days at doses of 0 mg/kg (0×), 30 mg/kg (1×), 60 mg/kg (2×), and 90 mg/kg (3×) of body weight three times daily (TID), every 8 hours±30 min.
(§2) Treatment phase involved administration of the investigational drug or placebo. The investigational drug was a sterile injectable formulation of dipyrone (Zimeta™, Corden Pharma, Caponago, Italy) (500 mg/mL) in 100 mL glass bottles. The placebo was sterile injectable saline (Nova-Tech Inc, Grand Island, NE) (0.9% sodium chloride) in 500 mL plastic bottles labeled for veterinary use. Dipyrone treatment groups were 30 mg/kg (1×), 60 mg/kg (2×), and 90 mg/kg (3×). Placebo treatment group was saline administered at a volume to match the 3× dipyrone group (0×). The dose was calculated based on body weight and administered three times daily for nine consecutive days. Due to the large volume of injection at the higher dose groups, treatment was administered via indwelling intravenous (IV) catheters. Intravenous catheters were placed using standard techniques. Horses were sedated with xylazine (AnaSed® LA, VetOne, MWI, Boise, Id.) and the skin was desensitized with subcutaneous injection of lidocaine (VetOne, MWI, Boise, Id.). Intravenous catheters were replaced at the discretion of the study director and were maintained with heparinized saline flush prior to and following dose administration.
(§3) Randomization occurred on Study Day −1. […] .
All 32 horses were acclimated prior to study initiation and started the treatment phase healthy. During the study, numerous horses in all groups including placebo developed clinical signs of pneumonia likely due to exposure and incubation of respiratory pathogens prior to the start of the treatment phase. The mean time to development of pneumonia was 6.9 days with a range of 4.3 to 8.3 days. […] The other 31 horses completed the study. At the second gastroscopy examination, completed just prior to the treatment phase, one horse was noted to have purulent material draining from the guttural pouch. […]

horses [2] = assay: Margin of safety study, IV three times daily for 9 days: coagulation panel (prothrombin time, APTT, fibrinogen); type: in vivo; conditions: for Prothrombin Time LS Means: averaged over time and sex
Experimental: as §1
This was a prospective, blinded, randomized, placebo-controlled, parallel-group laboratory study in research horses. Thirty-two horses were enrolled in the study (Table 1).
as §2, §3
For continuous endpoints with repeated post-treatment measurements (serum chemistry, coagulation, hematology, urinalysis, body weight, body temperature, heart rate and respiratory rate), repeated measurement analysis of covariance (SAS MIXED procedure RMANCOVA) was used to evaluate a model including treatment, time, sex, treatment by sex interaction, treatment by time interaction, and treatment by time by sex three-way interaction as fixed effects. In addition, baseline values were included as a covariate and remained in the model regardless of its significance. Baseline values were defined as the values prior to and nearest to the first dosing. The covariance structures for repeated measures analysis of covariance (RMANCOVA) were selected from compound symmetry (CS) and compound symmetry heterogeneous variances (CSH), since only two post baseline measurements were collected in this study. The Kenward-Roger approximation was used to calculate denominator degrees of freedom for statistical tests. The minimum Akaike Information Criterion was used to select the covariance structure.
In Table 6 below the percent of samples in each treatment group that were above the upper reference range limit of 12 seconds is listed for Days 4 and 8.

[3] = 1X, 30 mg/kg IV every 8 hours, Day 4
[4] = 1X, 30 mg/kg IV every 8 hours, Day 8
[5] = 2X, 60 mg/kg IV every 8 hours, Day 4
[6] = 2X, 60 mg/kg IV every 8 hours, Day 8
[7] = 3X, 90 mg/kg IV every 8 hours, Day 4
[8] = 3X, 90 mg/kg IV every 8 hours, Day 8
[9] = 3X, 90 mg/kg IV every 8 hours, Day 8, only 7 samples
[10] = 30, 60, 90 mg/kg IV every 8 hours for 9 days vs placebo

Cc1c(N(C)CS(=O)(=O)O)c(=O)n(-c2ccccc2)n1C [dipyrone, [(2,3-dihydro-1,5-dimethyl-3-oxo-2-phenyl-1H-pyrazol-4-yl)methylamino] methanesulfonic acid]
Nasal Discharge, number of horses (horses [1]; 1X, 30 mg/kg IV every 8 hours): 1
Nasal Discharge, number of horses (horses [1]; 2X, 60 mg/kg IV every 8 hours): 2
Nasal Discharge, number of horses (horses [1]; 3X, 90 mg/kg IV every 8 hours): 1
Percent of samples with PT >12 sec (horses [2]; [3]): 100%
Percent of samples with PT >14 sec (horses [2]; [3]): 25%
Prothrombin Time Day 4 Range (horses [2]; [3]): 12.6 to 14.6 s
Range of PT values >14 sec (horses [2]; [3]): 14.1 to 14.6 s
Percent of samples with PT >12 sec (horses [2]; [4]): 100%
Percent of samples with PT >14 sec (horses [2]; [4]): 13%
Prothrombin Time Day 8 Range (horses [2]; [4]): 12.3 to 15.2 s
Range of PT values >14 sec (horses [2]; [4]): (15.2) sec
Prothrombin Time LS Means (horses [2]; 1X, 30 mg/kg IV every 8 hours): 13.374 s and 13.374 ± 0.4062 s
Percent of samples with PT >12 sec (horses [2]; [5]): 100%
Percent of samples with PT >14 sec (horses [2]; [5]): 13%
Prothrombin Time Day 4 Range (horses [2]; [5]): 12.7 to 15.8 s
Range of PT values >14 sec (horses [2]; [5]): 15.8 s
Percent of samples with PT >12 sec (horses [2]; [6]): 100%
Percent of samples with PT >14 sec (horses [2]; [6]): 50%
Prolongation of PT observed, number of horses (horses [2]; [6]): 1
Prothrombin Time Day 8 Range (horses [2]; [6]): 12.8 to 21.6 s
Range of PT values >14 sec (horses [2]; [6]): (14.7-21.6) sec
Prothrombin Time LS Means (horses [2]; 2X, 60 mg/kg IV every 8 hours): 14.524 s and 14.524 ± 0.4064 s
Percent of samples with PT >12 sec (horses [2]; [7]): 100%
Percent of samples with PT >14 sec (horses [2]; [7]): 75%
Prothrombin Time Day 4 Range (horses [2]; [7]): 13.4 to 15.9 s
Range of PT values >14 sec (horses [2]; [7]): 14.6 to 15.9 s
Prolongation of PT observed, number of horses (horses [2]; [8]): 1
Prothrombin Time Day 8 Range (horses [2]; [8]): 12.7 to 21.9 s
Range of PT values >14 sec (horses [2]; [8]): (14.3-21.9) sec
Percent of samples with PT >12 sec (horses [2]; [9]): 100%^4
Percent of samples with PT >14 sec (horses [2]; [9]): 71%^4
Prothrombin Time LS Means (horses [2]; 3X, 90 mg/kg IV every 8 hours): 14.946 s and 14.946 ± 0.4396 s
Activated partial thromboplastin time (APTT) or fibrinogen (horses [2]; [10]): no statistically significant differences
Effect on prothrombin time (PT) (horses [2]; [10]): statistically significant main treatment effect of prolongation of prothrombin time (PT)
